Measured values: paper PMC7919409, “Crystal structures of adenylylated and unadenylylated PII protein GlnK from Corynebacterium glutamicum” (Acta Crystallographica. Section D, Structural Biology, 2021)

Target: T1, adGlnK (adenylylated GlnK) (Corynebacterium glutamicum, UniProt H7C694)
T1 construct: gene glnB; full length, untagged (stop codon inserted before Xa-Strep tag), produced in C. glutamicum; Tyr51 O-adenylylated (AMP covalently attached); homotrimer, hexamer in crystal; 112 residues
Test: X-ray crystal structure, […] A
Format: binding
Conditions: fortuitously bound, co-purified (no nucleotide added), one of six effector sites at subunit interface, Tyr51 adenylylated, Mg, Ca, pH 7.1, 292 K

T1 sequence (H7C694 entry or part of it): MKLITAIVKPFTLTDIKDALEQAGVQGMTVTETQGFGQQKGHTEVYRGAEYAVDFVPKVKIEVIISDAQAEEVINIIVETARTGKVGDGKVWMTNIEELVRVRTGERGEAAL

Row | SMILES | X-ray crystal structure, 1.8 A | X-ray crystal structure, 1.8 A (non-covalent AMP in ATP-binding pocket, distinct from)
1 | Nc1ncnc2c1ncn2[C@@H]1O[C@H](COP(=O)(O)OP(=O)(O)O)[C@@H](O)[C@H]1O [ADP] | fortuitous binding of AMP and ADP was observed in the remaining two binding sites | –
2 | Nc1ncnc2c1ncn2[C@@H]1O[C@H](COP(=O)(O)O)[C@@H](O)[C@H]1O [AMP] | – | fortuitous binding of AMP and ADP was observed in the remaining two binding sites
